Measurements as given in US10392368B2, “Pyrazolo and triazolo bicyclic compounds as JAK kinase inhibitors” (THERAVANCE BIOPHARMA R&D IP, LLC, priority 2017, dated 2019).
Read-outs that look alike come from different tables or passages of the source.

What was measured:
JAK3 = target: T1, JAK3 (Homo sapiens, UniProt P52333); test: Biochemical JAK3 kinase assay (LanthaScreen); design: GST; purchased Life Technologies; details: for Ki: read-out: JAK 3 (pKi) (converted)
T1 sequence (P52333 1-1124): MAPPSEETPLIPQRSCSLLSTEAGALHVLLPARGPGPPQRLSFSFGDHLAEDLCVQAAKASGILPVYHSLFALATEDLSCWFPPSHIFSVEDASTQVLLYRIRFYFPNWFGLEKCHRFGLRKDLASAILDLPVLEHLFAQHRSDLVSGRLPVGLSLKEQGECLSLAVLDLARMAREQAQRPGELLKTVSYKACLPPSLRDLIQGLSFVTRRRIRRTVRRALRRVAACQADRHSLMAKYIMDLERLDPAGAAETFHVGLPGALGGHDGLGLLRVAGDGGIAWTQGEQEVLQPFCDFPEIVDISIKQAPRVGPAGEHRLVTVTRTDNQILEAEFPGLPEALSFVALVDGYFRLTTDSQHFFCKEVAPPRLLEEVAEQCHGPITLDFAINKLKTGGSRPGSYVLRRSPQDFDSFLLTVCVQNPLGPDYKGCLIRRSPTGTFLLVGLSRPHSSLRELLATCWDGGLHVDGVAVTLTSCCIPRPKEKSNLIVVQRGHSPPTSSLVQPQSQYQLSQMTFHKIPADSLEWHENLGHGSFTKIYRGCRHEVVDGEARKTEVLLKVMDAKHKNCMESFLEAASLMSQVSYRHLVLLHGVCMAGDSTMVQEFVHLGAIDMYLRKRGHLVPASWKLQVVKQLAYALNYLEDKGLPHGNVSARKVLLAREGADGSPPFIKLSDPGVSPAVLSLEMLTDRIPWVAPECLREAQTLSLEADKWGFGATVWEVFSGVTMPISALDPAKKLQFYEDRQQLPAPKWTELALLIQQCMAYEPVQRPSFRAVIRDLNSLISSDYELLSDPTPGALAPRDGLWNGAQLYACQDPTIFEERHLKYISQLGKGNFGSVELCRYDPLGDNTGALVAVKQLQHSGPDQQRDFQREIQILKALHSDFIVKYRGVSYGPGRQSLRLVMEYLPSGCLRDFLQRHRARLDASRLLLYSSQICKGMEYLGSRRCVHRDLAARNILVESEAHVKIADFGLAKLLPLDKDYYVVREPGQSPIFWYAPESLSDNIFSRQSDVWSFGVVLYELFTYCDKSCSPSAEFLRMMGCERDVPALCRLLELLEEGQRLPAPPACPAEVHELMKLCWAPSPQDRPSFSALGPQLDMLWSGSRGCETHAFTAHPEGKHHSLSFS
Summary of the method: (§1)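 GST-tagged JAK enzyme and GFP-STAT1 peptide preincubated with compound 1 h, then ATP added; 1 h kinase reaction at ambient temperature, pH 7.5 HEPES/MgCl2 buffer, 1% DMSO. Tb-anti-pSTAT1 (pTyr701) TR-FRET, 520/495 nm ratio; IC50 from 4-parameter fit, converted to pKi via Cheng-Prusoff.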

JAK1 = target: T2, JAK1 (Homo sapiens, UniProt P23458); test: Biochemical JAK1 kinase assay (LanthaScreen); details: for Ki: read-out: JAK 1 (pKi) (converted)
T2 construct: GST; purchased Life Technologies
Summary of the method: as §1

[1] = system: IL-2 stimulated pSTAT5 in Tall-1 T cells; test: Cellular JAK3 potency assay: inhibition of IL-2 stimulated pSTAT5 in Tall-1 T cells; format: cell-based, human; details: for IC50: Homo sapiens, read-out: Tall-1 (pIC50) (converted)
Summary of the method: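 In human Tall-1 T cells, IL-2 (300 ng/ml final, 30 min) drives STAT5 phosphorylation after a 1 h compound pretreatment. Lysates are assayed for pSTAT5 by AlphaLisa, and IC50 derived from signal versus concentration is expressed as pIC50.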

[2] = selectivity: difference of pKi JAK3 and pKi JAK1
[3] = IL-2 stimulated pSTAT5 in Tall-1 T cells
[4] = selectivity JAK3 over JAK1, difference of pKi
[5] = TALL-1, IL-2 stimulated pSTAT5, Tall-1 T cells
[6] = TALL-1, IL-2 stimulated pSTAT5 in Tall-1 T cells
[7] = IL-2 stimulated pSTAT5, Tall-1 T cells

T2 sequence (P23458 whole entry): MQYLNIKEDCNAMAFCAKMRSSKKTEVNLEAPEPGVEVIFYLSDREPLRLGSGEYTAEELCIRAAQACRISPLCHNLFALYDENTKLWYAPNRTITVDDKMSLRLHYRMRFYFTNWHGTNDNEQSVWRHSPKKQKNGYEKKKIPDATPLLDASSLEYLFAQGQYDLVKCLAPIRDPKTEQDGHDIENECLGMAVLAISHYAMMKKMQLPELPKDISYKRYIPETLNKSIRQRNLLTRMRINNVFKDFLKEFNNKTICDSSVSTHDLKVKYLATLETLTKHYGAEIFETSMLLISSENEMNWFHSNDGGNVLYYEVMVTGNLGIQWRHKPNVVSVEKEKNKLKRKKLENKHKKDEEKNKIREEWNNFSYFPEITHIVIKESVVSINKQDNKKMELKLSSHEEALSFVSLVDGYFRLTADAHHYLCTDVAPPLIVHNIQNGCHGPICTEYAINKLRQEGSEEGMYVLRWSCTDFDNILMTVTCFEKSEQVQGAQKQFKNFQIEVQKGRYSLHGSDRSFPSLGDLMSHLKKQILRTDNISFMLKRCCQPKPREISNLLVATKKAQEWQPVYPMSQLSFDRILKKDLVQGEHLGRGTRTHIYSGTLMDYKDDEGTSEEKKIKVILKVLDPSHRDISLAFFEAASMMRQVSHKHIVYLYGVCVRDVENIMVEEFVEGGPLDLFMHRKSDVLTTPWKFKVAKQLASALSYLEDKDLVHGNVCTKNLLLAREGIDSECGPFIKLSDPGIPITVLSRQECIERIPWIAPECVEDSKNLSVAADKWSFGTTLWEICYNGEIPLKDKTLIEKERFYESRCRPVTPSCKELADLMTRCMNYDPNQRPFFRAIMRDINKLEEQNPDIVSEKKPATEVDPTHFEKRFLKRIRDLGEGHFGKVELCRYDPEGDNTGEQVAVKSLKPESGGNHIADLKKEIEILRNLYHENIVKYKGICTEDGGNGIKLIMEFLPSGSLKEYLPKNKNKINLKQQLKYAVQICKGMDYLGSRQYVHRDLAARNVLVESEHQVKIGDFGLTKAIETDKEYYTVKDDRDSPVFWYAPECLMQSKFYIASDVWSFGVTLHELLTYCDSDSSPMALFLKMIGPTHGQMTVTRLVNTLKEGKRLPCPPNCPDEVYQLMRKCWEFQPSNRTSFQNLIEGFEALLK

SMILES | JAK 3 (pKi) (JAK3) | JAK3 (pKi)-JAK1 (pKi) (JAK3; [2]) | JAK 1 (pKi) (JAK1) | Tall-1 (pIC50) [1, 3] | Ki (JAK3) [nM] | JAK3 (pKi)-JAK1 (pKi) (JAK3; [4]) | Ki (JAK1) [nM] | IC50 [1, 5] [nM] | IC50 [1, 6] [nM] | Tall-1 (pIC50) [1, 7]
C=CC(=O)N1CC(CC)(COc2cc(-c3ccc(O)cc3)cc3[nH]ncc23)C1 [Compound 3-14] | B (a pKi value between 9 and 10 (Ki between 1 nM and 0.1 nM)) | A (a value of 3 or above) | E (a pKi value of 7 or below (Ki of 100 nM or above)) | B (a pIC50 value between 6.7 (included) and 7.5 (IC50 between 200 nM and 32 nM)) |  |  |  |  |  | 
C=CC(=O)N1CC[C@H]1C(=O)Nc1cc(-c2ccc(O)cc2)cc2[nH]ncc12 [Compound 12-69] |  |  |  |  | < 0.1 | A (a value of 3 or above) | > 100 | 31.6 to 200 |  | 
O=C(/C=C/CN1CCOCC1)N1CC(COc2cc(-c3ccc(O)cc3)cc3[nH]ncc23)C1 [Compound 3-129] |  | A (a value of 3 or above) |  |  | 0.1 to 1 |  | > 100 |  | 200 to 1000 | 
CN(C)C/C=C/C(=O)N1CC[C@H](COc2nc(-c3ccc(O)c(Cl)c3)cc3[nH]ncc23)C1 [Compound 2-9] | B (a pKi value between 9 and 10 (Ki between 1 nM and 0.1 nM)) | B (a value of 2.3 to 3) | E (a pKi value of 7 or below (Ki of 100 nM or above)) | B (a pIC50 value between 6.7 (included) and 7.5 (IC50 between 200 nM and 32 nM)) |  |  |  |  |  | 
C=CC(=O)N1CC2(CC(Oc3cc(-c4ccc(O)cc4)nc4[nH]ncc34)C2)C1 [Compound 15-8] | B (a pKi value between 9 and 10 (Ki between 1 nM and 0.1 nM)) |  | D (a pKi value between 7 and 8 (Ki between 100 nM and 10 nM)) |  |  | B (a value of 2.3 to 3) |  |  |  | B (a pIC50 value between 6.7 (included) and 7.5 (IC50 between 200 nM and 32 nM))
CN(C)C/C=C/C(=O)N1CC[C@H]1COc1cc(-c2ccc(O)cc2)cc2[nH]ncc12 [Compound 12-24] |  |  |  |  | 0.1 to 1 | A (a value of 3 or above) | > 100 | 200 to 1000 |  | 
C=CC(=O)N1CCC(Oc2cc(-c3ccc(O)cc3)cc3[nH]nnc23)C1 (centres unmarked) [Compound 17-2] | A (a pKi value≥10 (Ki≤0.1 nM)) |  | E (a pKi value of 7 or below (Ki of 100 nM or above)) |  |  | A (a value of 3 or above) |  |  |  | C (a pIC50 value between 6 and 6.7 (IC50 between 1 μM and 200 nM))
CN(C)CC=CC(=O)N1C2CCC1CC(Oc1nc(-c3ccc(O)c(Cl)c3)cc3[nH]ncc13)C2 (centres unmarked) [Compound 9-8] | B (a pKi value between 9 and 10 (Ki between 1 nM and 0.1 nM)) |  | D (a pKi value between 7 and 8 (Ki between 100 nM and 10 nM)) |  |  | C (a value of 1.8 to 2.3) |  |  |  | C (a pIC50 value between 6 and 6.7 (IC50 between 1 μM and 200 nM))
C=CC(=O)N1CC[C@H](Oc2cc(-c3cc(F)c(O)cc3F)cc3[nH]nc(C)c23)C1 [Compound 1-30] |  | B (a value of 2.3 to 3) |  |  | < 0.1 |  | 10 to 100 |  | 31.6 to 200 | 
C=CC(=O)N1CC[C@H](COc2nc(-c3ccc(O)cc3)nc3[nH]ncc23)C1 [Compound 2-7] | B (a pKi value between 9 and 10 (Ki between 1 nM and 0.1 nM)) | A (a value of 3 or above) | E (a pKi value of 7 or below (Ki of 100 nM or above)) | B (a pIC50 value between 6.7 (included) and 7.5 (IC50 between 200 nM and 32 nM)) |  |  |  |  |  | 
C=CC(=O)N1CC(C)(Oc2cc(-c3ccc(O)c(F)c3)cc3[nH]ncc23)C1 [Compound 5-24] | B (a pKi value between 9 and 10 (Ki between 1 nM and 0.1 nM)) |  | E (a pKi value of 7 or below (Ki of 100 nM or above)) |  |  | A (a value of 3 or above) |  |  |  | B (a pIC50 value between 6.7 (included) and 7.5 (IC50 between 200 nM and 32 nM))
C=CC(=O)N1CCC[C@H](C(=O)Nc2cc(-c3ccc(O)cc3)cc3[nH]ncc23)C1 [Compound 12-56] |  |  |  |  | < 0.1 | A (a value of 3 or above) | > 100 | 31.6 to 200 |  | 
C=CC(=O)N1CC[C@H](Oc2nc(-c3ccc(O)c(Cl)c3)cc3[nH]nc(C)c23)C1 [Compound 1-35] |  | A (a value of 3 or above) |  |  | < 0.1 |  | 10 to 100 |  | < 31.6 | 
CN(C)C/C=C/C(=O)N1CC[C@H](Oc2cc(-c3ccc(O)c(F)c3)cc3[nH]ncc23)C1 [Compound 1-4] |  | A (a value of 3 or above) |  |  | 0.1 to 1 |  | > 100 |  | 200 to 1000 | 
C=CC(=O)N1CCC(COc2nc(-c3ccc(O)c(F)c3)cc3[nH]ncc23)CC1 [Compound 14-8] | A (a pKi value≥10 (Ki≤0.1 nM)) |  | D (a pKi value between 7 and 8 (Ki between 100 nM and 10 nM)) |  |  | B (a value of 2.3 to 3) |  |  |  | A (a pIC50 value≥7.5 (IC50≤32 nM))
C=CC(=O)N1CCC[C@H](Oc2nc(-c3ccc(O)c(Cl)c3)nc3[nH]ncc23)C1 [Compound 8-12] | B (a pKi value between 9 and 10 (Ki between 1 nM and 0.1 nM)) |  | E (a pKi value of 7 or below (Ki of 100 nM or above)) |  |  | A (a value of 3 or above) |  |  |  | C (a pIC50 value between 6 and 6.7 (IC50 between 1 μM and 200 nM))
O=C(/C=C/CN1CCCC1)N1CC(COc2cc(-c3ccc(O)cc3)cc3[nH]ncc23)C1 [Compound 3-124] |  | A (a value of 3 or above) |  |  | 0.1 to 1 |  | > 100 |  | 31.6 to 200 | 
C=CC(=O)N1CCC(Oc2nc(-c3ccc(O)c(Cl)c3)nc3[nH]ncc23)CC1 [Compound 6-22] |  |  |  |  | 0.1 to 1 | A (a value of 3 or above) | > 100 | 200 to 1000 |  | 
C=CC(=O)N1CC(Oc2cc(-c3ccc(O)cc3)cc3[nH]ncc23)(C(F)(F)F)C1 [Compound 5-26] | B (a pKi value between 9 and 10 (Ki between 1 nM and 0.1 nM)) |  | E (a pKi value of 7 or below (Ki of 100 nM or above)) |  |  | B (a value of 2.3 to 3) |  |  |  | C (a pIC50 value between 6 and 6.7 (IC50 between 1 μM and 200 nM))
C=CC(=O)N1CCC(COc2cc(-c3ccc(O)c(F)c3)cc3[nH]ncc23)CC1 [Compound 14-5] | B (a pKi value between 9 and 10 (Ki between 1 nM and 0.1 nM)) |  | D (a pKi value between 7 and 8 (Ki between 100 nM and 10 nM)) |  |  | B (a value of 2.3 to 3) |  |  |  | A (a pIC50 value≥7.5 (IC50≤32 nM))
C=CC(=O)N1CCC[C@H](S(=O)(=O)c2cc(-c3ccc(O)cc3)cc3[nH]ncc23)C1 [Compound 12-9] |  |  |  |  | 0.1 to 1 | A (a value of 3 or above) | > 100 | 200 to 1000 |  | 
C=CC(=O)N1CC[C@@H](Nc2cc(-c3ccc(O)cc3)cc3[nH]ncc23)C1 [Compound 12-18] |  |  |  |  | < 0.1 | B (a value of 2.3 to 3) | 10 to 100 | 31.6 to 200 |  | 
CN(C)CC=CC(=O)N1C2CCC1CC(Oc1cc(-c3ccc(O)c(F)c3)cc3[nH]ncc13)C2 (centres unmarked) [Compound 10-5] | B (a pKi value between 9 and 10 (Ki between 1 nM and 0.1 nM)) |  | D (a pKi value between 7 and 8 (Ki between 100 nM and 10 nM)) |  |  | C (a value of 1.8 to 2.3) |  |  |  | B (a pIC50 value between 6.7 (included) and 7.5 (IC50 between 200 nM and 32 nM))
